Data set [1] concerns human TERT expression (hTERT mRNA transcripts). The data set is described as follows: Quantitative real-time RT-PCR of hTERT mRNA transcripts in compound-treated cells. In kind it is cell-based. The text has this:
Telomerase is a ribonucleoprotein complex composed of the catalytic protein subunit (human telomerase reverse transcriptase or hTERT) and the RNA template. hTERT expression level can be measured by PCR.
Quantitative Reverse Transcription PCR can be run according to procedures outlined in Yajima et al. (Yajima, T. et al. Quantitative Reverse Transcription-PCR Assay of the RNA Component of Human Telomerase Using the TaqMan Fluorogenic Detection System Clinical Chemistry, 44:12, 2441-2445, 1998).
The principle of real-time PCR was first described by Heid et al. (Heid C. A., Stevens J., Livak K. J., Williams P. M. Real time quantitative PCR. Genome Res., 6: 986-994, 1996). Briefly, amplification of the target sequence is monitored per PCR cycle by detecting the fluorescence signal emitted by an internal probe that is degraded by the 5′ nuclease activity of the Taq polymerase. The emission signal accumulates in each sample, and the Ct required to reach a given fluorescence threshold is determined (Ct stands for Cycle Threshold and is a measure of the number of PCR cycles that are required to amplify a target—thus, a lower Ct score means that there is more abundant hTERT mRNA). Thus, the C1 value of a sample inversely correlates to the quantity of the starting cDNA which correlates to the number of mRNA transcripts. Using the cDNA of known quantity, a standard curve can be generated and used to determine the starting amount of mRNA transcripts based on the […] of each sample.
Quantitative real-time PCR can be done on cDNA from test compound-treated and nontreated cells by use of a ABI Prism 7900 Sequence Detection System (PE Applied Biosystems, Foster City, CA) following the Assays-on-Demand protocol (PE Applied Biosystems, Foster City, CA). Quantitative data can be analyzed using the Sequence Detection System software version 2.1 (PE Applied Biosystems).
The following compounds were tested in assays designed to identify compounds that enhance human TERT expression. The compounds turned on human TERT expression in these assays.

Data set [2] has as its system viable cells in culture. The data set is described as follows: Cell viability assay (CellTiter-Glo Luminescent Cell Viability Assay, ATP quantitation). In kind it is cell-based. Particulars: percent of DMSO vehicle control.
Protocol: Cell viability is determined using a homogeneous method, such as CellTiter-Glo® Luminescent Cell Viability Assay (Promega Corporation, Madison, WI) to determine the number of viable cells in culture These assays are based on quantitation of the ATP present, which signals the presence of metabolically active cells. Luminescent values of compound treated cells are compared to that of cells treated with vehicle alone to determine the average cell viability as a percent of control.

This note sets out measurements from patent publication US12168019B1, “8-hydroxy quinoline derivatives for enhancing telomerase reverse transcriptase (TERT) expression” (Sierra Sciences, Inc., priority 2010, dated 2024).
Also: test concentration or dose not given here.

`Oc1c(CN2CCN(c3cccc(Cl)c3)CC2)cc(Br)c2cccnc12` [Compound 1002]: the “Average Number of hTERT Transcripts” value in data set [1] is given as 14.79. Besides, the “Average Cell Viability after 24 Hours (% DMSO)” value in data set [2] was 57.7 % DMSO. For `COc1cc(C(Nc2ccccn2)c2ccc3cccnc3c2O)cc(Br)c1OC` (stereo not shown) [Compound 1005] the same measures were 55.17 and 64.8 % DMSO.

As to `Oc1c(C(Nc2ccccn2)c2ccccc2Br)ccc2cccnc12` (stereo not shown) [Compound 1007], the “Average Number of hTERT Transcripts” value in data set [1] was determined as 18.02. The “Average Cell Viability after 24 Hours (% DMSO)” value in data set [2] came out at 68 % DMSO. With `CCN(CC)c1ccc(C(NC(=O)C(C)C)c2cc(Cl)c3cccnc3c2O)cc1` (stereo not shown) [Compound 1011], the “Average Number of hTERT Transcripts” value in data set [1] was found to be 14.2. In data set [2], the “Average Cell Viability after 24 Hours (% DMSO)” value came to 64.5 % DMSO. For `Oc1c(I)cc(I)c2cccnc12` [Compound 1018], the “Average Number of hTERT Transcripts” value in data set [1] is 105.41. Further, the “Average Cell Viability after 24 Hours (% DMSO)” value in data set [2] is recorded as 56.9 % DMSO.

With `Oc1c(Cl)cc(Cl)c2cccnc12` [Compound 1020], the “Average Number of hTERT Transcripts” value in data set [1] is 45.03. The “Average Cell Viability after 24 Hours (% DMSO)” value in data set [2] was found to be 25.1 % DMSO. With `CC(=O)NC(c1ccccc1Cl)c1ccc2cccnc2c1O` (stereo not shown) [Compound 1025], in data set [1], the “Average Number of hTERT Transcripts” value is on record as 113.98. The “Average Cell Viability after 24 Hours (% DMSO)” value in data set [2] is on record as 93.5 % DMSO. For `CCC(=O)NC(c1ccc(OC)c(OC)c1)c1cc([N+](=O)[O-])c2cccnc2c1O` (stereo not shown) [Compound 1028] the same measures were 65.66 and 80.69 % DMSO.

As for `O=[N+]([O-])c1cc(CN2CCN(c3ccccc3)CC2)c(O)c2ncccc12` [Compound 1029], the “Average Number of hTERT Transcripts” value in data set [1] was 5.3. The “Average Cell Viability after 24 Hours (% DMSO)” value in data set [2] is given as 32 % DMSO. The corresponding values for `COc1ccc(C(NC(C)=O)c2cc(Cl)c3cccnc3c2O)cc1OC` (stereo not shown) [Compound 1038] are 28.95 and 80.33 % DMSO. For `O=C(NC(c1ccc(Cl)cc1)c1ccc2cccnc2c1O)C1CCCCC1` (stereo not shown) [Compound 1045] the same measures were 13.86 and 60.3 % DMSO. The corresponding values for `CCCCC(=O)NC(c1ccc2c(c1)OCO2)c1cc([N+](=O)[O-])c2cccnc2c1O` (stereo not shown) [Compound 1046] are 158.46 and 78 % DMSO. For the compound `CC(=O)NC(c1cccs1)c1cc(Cl)c2cccnc2c1O` (stereo not shown) [Compound 1052], in data set [1], the “Average Number of hTERT Transcripts” value was determined as 12.07. Also, in data set [2], the “Average Cell Viability after 24 Hours (% DMSO)” value is listed as 60.8 % DMSO. The corresponding values for `O=C(NC(c1ccc2c(c1)OCO2)c1cc([N+](=O)[O-])c2cccnc2c1O)C1CCCCC1` (stereo not shown) [Compound 1068] are 21.41 and 61.2 % DMSO.

As to `COc1ccc(C(NC(=O)C(C)C)c2cc([N+](=O)[O-])c3cccnc3c2O)cc1` (stereo not shown) [Compound 1073], the “Average Number of hTERT Transcripts” value in data set [1] was found to be 103.42. Further, in data set [2], the “Average Cell Viability after 24 Hours (% DMSO)” value turned out to be 80.1 % DMSO.

For the compound `CCCCC(=O)NC(c1ccc(O)c(OCC)c1)c1cc([N+](=O)[O-])c2cccnc2c1O` (stereo not shown) [Compound 1075], the “Average Number of hTERT Transcripts” value in data set [1] is on record as 83.26. Besides, in data set [2], the “Average Cell Viability after 24 Hours (% DMSO)” value was found to be 82.63 % DMSO.

For `Cc1cc(C)n(-c2ccc3c(Cl)cc(Cl)c(O)c3n2)n1` [Compound 1079], in data set [1], the “Average Number of hTERT Transcripts” value is reported as 98.36. Moreover, in data set [2], the “Average Cell Viability after 24 Hours (% DMSO)” value is given as 71.22 % DMSO. For `Cc1ccnc(NC(c2ccc([N+](=O)O)cc2)c2ccc3ccc(C)nc3c2O)c1` (stereo not shown) [Compound 1081] the same measures were 18.87 and 70.69 % DMSO. Consider `Cc1ccnc(NC(c2cccc(Br)c2)c2ccc3ccc(C)nc3c2O)c1` (stereo not shown) [Compound 1083], for which, in data set [1], the “Average Number of hTERT Transcripts” value is given as 18.44.

Regarding `Cc1ccnc(NC(c2cccc([N+](=O)O)c2)c2ccc3ccc(C)nc3c2O)c1` (stereo not shown) [Compound 1084], the “Average Number of hTERT Transcripts” value in data set [1] came to 11.54. Besides, the “Average Cell Viability after 24 Hours (% DMSO)” value in data set [2] is reported as 65.08 % DMSO. `O=C(NC(c1ccccc1)c1ccc2cccnc2c1O)c1ccccc1` (stereo not shown) [Compound 1086]: the “Average Number of hTERT Transcripts” value in data set [1] amounted to 48.77. The same measure, in the same setting: next, `CC(C)C(=O)NC(c1ccco1)c1ccc2cccnc2c1O` (stereo not shown) [Compound 1087]: 240.41; `Cc1ccc(C(NC(=O)C(C)C)c2ccc3cccnc3c2O)cc1` (stereo not shown) [Compound 1088]: 191.81.

Regarding `CCN1CCN(Cc2ccc3cccnc3c2O)CC1` [Compound 1089], the “Average Number of hTERT Transcripts” value in data set [1] worked out at 38.29.

With `Cc1ccc(S(=O)(=O)Nc2ccc(O)c3ncccc23)cc1` [Compound 1091], the “Average Number of hTERT Transcripts” value in data set [1] was 91.89. In addition, the “Average Cell Viability after 24 Hours (% DMSO)” value in data set [2] stood at 94.3 % DMSO. As for `Cc1ccc(S(=O)(=O)Nc2cc(Cl)c(O)c3ncccc23)cc1` [Compound 1092], the “Average Number of hTERT Transcripts” value in data set [1] was determined as 96.33. Consider `Cc1ccc(S(=O)(=O)Nc2cc(S(=O)(=O)c3ccc(C)cc3)c(O)c3ncccc23)cc1` [Compound 1093], for which the “Average Number of hTERT Transcripts” value in data set [1] came to 160.48. For the same compound, in data set [2], the “Average Cell Viability after 24 Hours (% DMSO)” value turned out to be 66.5 % DMSO. For the compound `Oc1c(C(Nc2ccccc2Cl)c2ccccn2)ccc2cccnc12` (stereo not shown) [Compound 1095], the “Average Number of hTERT Transcripts” value in data set [1] is 3.46. On the same count and under the same terms, the result for `CCN(CC)Cc1ccc(O)c2ncccc12` [Compound 1096] reads 48.25; that for `COCc1cc(CN2CCCC2)c(O)c2ncccc12` [Compound 1097], 77.36; that for `COCc1cc(CN2CCCCC2)c(O)c2ncccc12` [Compound 1098], 102.7. The same measure, in the same setting: the result for `CCOCc1cc(CN2CCCCC2)c(O)c2ncccc12` [Compound 1099] reads 67.59. Consider `CCCOCc1cc(CN2CCCCC2)c(O)c2ncccc12` [Compound 1100], for which, in data set [1], the “Average Number of hTERT Transcripts” value came out at 9.12. For the same compound, the “Average Cell Viability after 24 Hours (% DMSO)” value in data set [2] is on record as 56.1 % DMSO. For the compound `CCCOCc1cc(CN2CCN(C)CC2)c(O)c2ncccc12` [Compound 1101], the “Average Number of hTERT Transcripts” value in data set [1] was found to be 24.8. The same measure, in the same setting: the result for `CC(C)OCc1cc(CN2CCCCC2)c(O)c2ncccc12` [Compound 1102] reads 351.44; that for `CC1CCN(Cc2cc(COC(C)C)c3cccnc3c2O)CC1` [Compound 1103], 70.5.

With `Cc1cc(NC(c2ccccn2)c2ccc3cccnc3c2O)no1` (stereo not shown) [Compound 1104], the “Average Number of hTERT Transcripts” value in data set [1] is given as 19.27. Still for that read-out and setting: next, `Cc1ccc2c(I)cc(I)c(O)c2n1` [Compound 1105]: 51.56. As to `O=S1(=O)CCC(N2COc3c(cc(Cl)c4cccnc34)C2)C1` (stereo not shown) [Compound 1107], the “Average Number of hTERT Transcripts” value in data set [1] came out at 7.97. `Cc1ccc2ccc(C(Nc3ccccn3)c3ccccc3Br)c(O)c2n1` (stereo not shown) [Compound 1108]: the “Average Number of hTERT Transcripts” value in data set [1] is 31.13. In the case of `O=C(CCc1ccccc1)NC(c1ccc(Cl)cc1)c1ccc2cccnc2c1O` (stereo not shown) [Compound 1109], the “Average Number of hTERT Transcripts” value in data set [1] was determined as 34.36. For the compound `CC(C)C(=O)NC(c1ccccc1)c1cc([N+](=O)[O-])c2cccnc2c1O` (stereo not shown) [Compound 1110], the “Average Number of hTERT Transcripts” value in data set [1] was 35.19. The same measure, in the same setting: next, `Cc1ccc2ccc(C(Nc3ccccn3)c3ccccc3Cl)c(O)c2n1` (stereo not shown) [Compound 1111]: 35.20; `COc1ccc(C(NC(=O)C(C)C)c2cc([N+](=O)[O-])c3cccnc3c2O)cc1OC` (stereo not shown) [Compound 1112]: 58.99; `Oc1ccc(CN2CCN(c3cccc(Cl)c3)CC2)c2cccnc12` [Compound 1113]: 29.15.
